US4124726A, “Anti-inflammatory agent of benzoyl derivative” (priority 1976, dated 1978)
Where two headings read alike, the source gives them in different places.

Experiments:
[1] = tested on: painful stretchings induced by acetic acid; assay: acetic acid induced stretching (analgesic effect); conditions: for Analgesic (percentage diminution of times of painful stretchings): 100 mg/kg oral, 0.7% acetic acid i.p., mice; for inhibition in vivo at 100 mg/kg: Mus musculus, po, read-out: Analgesic (percentage diminution of times of painful stretchings)
Experimental: Each sample was orally administrated in the dosage of 100 mg/kg before injection of acetic acid.

thrombosis = assay: inhibiting effect on thrombosis (arterio-venous by-pass, silk thread); type: in vivo, SD type male rats; conditions: for inhibition in vivo at 100 mg/kg: Rattus norvegicus, read-out: Thrombosis inh.
Experimental: Inhibiting effect on thrombosis:
The inhibiting effects of the samples of the invention on thrombosis were tested by the following test method.
A 0.5 ml of 50 μ/ml of the heparin physiological saline was added through the polyethylene tube before the first blood circulation. After the blood circulation for 15 minutes, the circulation was stopped in the middle of the tubing at artery side with a pinch cock.
Then, 0.2 ml of the heparin physiological saline was added to remove the blood coagulates on the tubing wall and another new polyethylene tubing filled with the heparin solution and containing a piece of new silk thread was attached between the venous and artery tubing ends.
The blood circulation was reestablished by opening the pinch cock. After 15 minutes, the wet weight of thrombus on the silk thread was similarly measured. In the same manner, the third circulation was performed and wet weight of thrombus measured.
The amount of thrombus was given by the equation A. [formula] Each sample was suspended in an aqueous solution of sodium carboxymethyl cellulose and the oral dose of the suspension (100 mg/kg) was performed at 5 hours before the first blood circulation. The amount of thrombus after the oral dose of the sample was calculated in the same manner as that of control circulations.
The thrombosis inhibition rate was given by the equation B. [formula]

carragheenin edema = assay: acute carragheenin edema inhibition (anti-inflammatory effect); type: in vivo, male rats; conditions: for Anti-inf. (edema inhibition rate) / inhibition in vivo at 100 mg/kg: 100 mg/kg oral; for ED50 / inhibition in vivo at 100 mg/kg: Rattus norvegicus; for ED50: read-out: 50% inhibition rate ED50; for inhibition in vivo at 100 mg/kg: read-out: Anti-inf. (edema inhibition rate)
Experimental: The edema was induced by subcutaneous injection of 1% carraheenin suspension in saline to the hind paws of male rats weighing 150 to 180 g. Each sample was orally given at the dosage of 100 mg/kg just before the inoculation of carragheenin.

platelet aggregation = assay: blood platelet aggregation inhibition, collagen as inducer; type: cell-based; conditions: 10^-4 mole, rabbit PRP; for inhibition at 100 µM: Oryctolagus cuniculus, Platelet, read-out: Blood platelet agg. inh. (percentage inhibition of platelet aggregation)
Description: Blood platelet aggregation inhibiting effect
Male rabbits (Japan original white strain 3.3 to 3.6 kg) were anesthetized with Thiopental sodium and blood was sampled from the carotid artery.

in vivo = conditions: mouse, po
Experimental: Each sample was dissolved in olive oil or dispersed in 1% Tween 20 aqueous solution.

[2] = 100 mg/kg oral, 5 hours before first circulation, rats
[3] = carragheenin edema, rats, Table 2
[4] = oral, carragheenin edema, rats, Table 2

Row | SMILES | Analgesic (percentage diminution of times of painful stretchings) [1] | Thrombosis inh. (thrombosis; [2]) | Anti-inf. (edema inhibition rate) (carragheenin edema; [3]) | Blood platelet agg. inh. (percentage inhibition of platelet aggregation) (platelet aggregation) | inhibition in vivo at 100 mg/kg (thrombosis; po) | LD50 at 72 h (in vivo) | inhibition in vivo at 100 mg/kg (thrombosis; [2]) | ED50 (carragheenin edema; [4]) | ED50 (carragheenin edema; po) | inhibition in vivo at 100 mg/kg [1] | inhibition in vivo at 100 mg/kg (carragheenin edema; [3]) | inhibition at 100 µM (platelet aggregation)
1 | O=C(Cc1ccccc1)c1ccccc1 [compound 47] | 13.1% | 15.6% | 20.9% | 18.3% | – | – | – | – | – | – | – | –
2 | COc1ccc(C(=O)c2ccccc2)cc1 [compound 28] | 4.2% | – | 44.1% | 20.4% | 7.3% | > 10000 mg/kg | – | – | – | – | – | –
3 | CCCCc1ccc(C(=O)c2ccccc2)cc1 [compound 19] | 30.1% | – | – | 18.6% | – | 2400 mg/kg | 7.9% | 25 mg/kg | – | – | – | –
4 | CCCCc1ccc(C(=O)c2ccccc2F)cc1 [compound 8] | 14.8% | – | – | 24.0% | – | – | 38% | 38 mg/kg | – | – | – | –
5 | O=C(c1ccccc1)c1ccccc1 [compound 27] | 13.2% | 25.9% | 47.7% | 25.7% | – | 3700 mg/kg | – | – | 120 mg/kg | – | – | –
6 | Cc1ccc(C(=O)C(=O)c2ccccc2)cc1 [compound 54] | 11.3% | 20.3% | 25.5% | 15.4% | – | – | – | – | – | – | – | –
7 | COc1ccc(C(=O)C(=O)c2ccccc2)cc1 | 10.2% | 18.3% | 43.9% | 20.1% | – | 10000 mg/kg | – | – | – | – | – | –
8 | O=C(c1ccccc1)c1ccc(C2CCCCC2)cc1 [compound 73] | – | – | – | – | – | 6000 mg/kg | 28.8% | – | – | 10% | 32.1% | 20.3%
9 | Cc1ccc(C)c(C(=O)c2ccccc2)c1 [compound 38] | 18.0% | – | – | 20.9% | – | 1000 mg/kg | 8.3% | 170 mg/kg | – | – | – | –
10 | CCCCCCc1ccc(C(=O)c2ccc(C)cc2C)cc1 [Active ingredient No. 4] | – | – | – | – | – | 4000 mg/kg | 15.9% | – | – | 16.3% | 44.2% | 20.5%
11 | Cc1cc(C)c(C(=O)c2ccccc2)c(C)c1 [compound 30] | – | – | – | – | – | 1500 mg/kg | 44.8% | 45 mg/kg | – | 13.4% | 64.7% | 8.7%
12 | O=C(C(=O)c1ccccc1)c1ccccc1 [compound 53] | 14.2% | 19.2% | 20.3% | 10.1% | – | – | – | – | – | – | – | –
